# From US20240237646A1, “METHODS OF DECREASING PLANT INJURY AND IMPROVING CROP YIELD” (priority 2023, published 2024)
# What was measured:
# [1] = test system: creeping bentgrass (Agrostis palustris) turf; details: 6 applications every two weeks, 8 visual ratings combined, trinexapac-ethyl 514, paclobutrazol 280, prohexadione-calcium 154, flurprimidol 15 g ai/ha, B Sure 19,091 ml/ha in mixtures
# Source text: Each plant growth regulator (PGR) combination was applied in 2 gallons of water per 1,000 square feet and applications were made 6 times with application intervals every two weeks. Visual injury was rated 8 times between June 8th and August 11th on a percent scale from 0 to 100 where 0 equals no visual response and 100 equals complete plant death.
# [2] = test system: genetically modified (GMO) soybeans engineered to resist 2,4-D; assay: Study, B Sure + herbicides in GMO soybeans (canopy rating); format: in vivo, soybean; details: lactofen 218, 2,4-D choline 1064, chlorimuron 13 g ai/ha; for Canopy rating relative to % ground cover: GMO soybeans V3-R1, B Sure 1 pt/A in mixtures, larger = greater crop vigor; for % Increase in soybean canopy measure with B Sure ® added: herbicide + B Sure 1 pt/A compared to the herbicide applied alone
# Source text: Treatments included 1) B Sure® 1 pt/A; 2) Lactofen 218 g ai/ha; 3) Lactofen 218 g ai/ha+B Sure® 1 pt/A; 4) 2,4-D choline 1064 g ai/ha; 5) 2,4-D choline 1064 g ai/ha+B Sure® 1 pt/A; 6) chlorimuron 13 g ai/ha; 7) chlorimuron 13 g ai/ha+B Sure® 1 pt/A. Adjuvants applied varied by treatment and were consistent with product label recommendations. A preemergence herbicide was applied to all treatments in order to reduce competition from weed species that would increase variability in the study. A canopy rating was made which evaluated the % ground cover differences of the soybeans associated with the various treatments. In these measurements, the larger ground cover number represents a greater amount of soybean leaf tissue which represents greater crop vigor and overall soybean health.
# [3] = test system: genetically modified (GM) soybeans (Enlist E3® soybeans); assay: Four field studies, B Sure + lactofen or 2,4-D in GM soybeans (yield); format: in vivo, Glycine max; details: for Yield (bushels/acre): lactofen 210 g ai/ha, 2,4-D choline salt 2,527 g ai/ha, check 62.2
# Protocol: Four field studies were conducted in 2023 in the states of Ohio, Nebraska, Indiana, and Illinois to determine the influence of the “HYT plant ameliorant” B Sure® at 1,170 mls/ha on soybean (Glycine max) yield when applied in combinations with the herbicides lactofen at 210 g ai/ha and 2,4-D (as its choline salt) at 2,527 g ai/ha on genetically modified (GM) soybeans (Enlist E3® soybeans) created to tolerate applications of 2,4-D, glufosinate, and glyphosate. Treatments were applied using a water carrier with crop oil concentrate added to all treatments at 1% v/v and ammonium sulfate at 2.24 kg/ha added to herbicide containing treatments. Yields were adjusted to constant moisture and recorded in bushels/acre. […] All plots were maintained weed free.
# soybeans (Glycine max) = details: fomesafen 350 g ai/ha alone
# Source text: The study was arranged in a randomized complete block design with 6 replicates in conventionally tilled soybeans (Glycine max).
# Herbicides were applied in a water carrier of 20 gallons per acre and treatments were applied at first flower (V5/R1). All fomesafen treatments contained an adjuvant system of 1% v/v crop oil concentrate and 2.5% v/v urea ammonium nitrate as is consistent with product label instructions.
# [4] = test system: creeping bentgrass (Agrostis stolonifera); assay: Field study, B Sure + PCNB on creeping bentgrass (visual injury); details: PCNB 227 g ai/1,000 sq ft, B Sure 6 fl oz/1,000 sq ft in the mixture
# Source text: PCNB was applied at 227 g ai/per 1,000 square feet. […] Treatments were applied on July 14th using an application volume of 2 gallons per 1,000 square feet. Creeping bentgrass injury ratings were made five times corresponding to 3, 7, 10, 14 and 28 days after application (DAA).
# [5] = test system: cotton (Gossypium hirsutum); assay: Six field studies, B Sure + trifloxysulfuron in cotton (visual injury); format: in vivo; details: trifloxysulfuron 8 g ai/ha alone, rated 2 to 3 weeks after application
# Source text: The studies were arranged in a randomized complete block design with 4 replicates in conventionally tilled cotton. Evaluations were combined over locations and plots were maintained weed free over the duration of the trial.
# Herbicides were applied in a water carrier to cotton at three separate stages of growth: 1) cotyledon-2 leaf; 2) 3-4 leaf; and 3) 5 leaf or greater. All trifloxysulfuron treatments contained a nonionic surfactant at 0.25% v/v as is consistent with product label instructions. Treatments included in the trial were the following: 1) trifloxysulfuron 8 g ai/ha-cotyledon-2 leaf cotton; 2) trifloxysulfuron 8 g ai/ha+B Sure® 1,170 mls/ha-cotyledon-2 leaf cotton; 3) trifloxysulfuron 8 g ai/ha+B Sure® 2 pint/acre-cotyledon-2 leaf cotton; 4) trifloxysulfuron 8 g ai/ha-3-4 leaf cotton, 5) trifloxysulfuron 8 g ai/ha+B Sure® 1,170 mls/ha-3-4 leaf cotton; 6) trifloxysulfuron 8 g ai/ha+B Sure® 2,340 mls/ha-3-4 leaf cotton; 7) trifloxysulfuron 8 g ai/ha-5 leaf or greater cotton, 8) trifloxysulfuron 8 g ai/ha+B Sure® 1,170 mls/ha-5 leaf or greater cotton; 9) trifloxysulfuron 8 g ai/ha+B Sure® 2, 340 mls/ha-5 leaf or greater cotton; 10) Check.
molecule,measurement,setting,value
Prohexadione-calcium,% Phytotoxicity,[1],12%
CCOC(=O)C1CC(=O)C(=C(O)C2CC2)C(=O)C1 (centres unmarked) [Trinexapac-ethyl],% Phytotoxicity,[1],10%
"CCOC(=O)C(C)OC(=O)c1cc(Oc2ccc(C(F)(F)F)cc2Cl)ccc1[N+](=O)[O-] (centres unmarked) [Lactofen, lactofen]",Canopy rating relative to % ground cover,[2],2.99
same,% Increase in soybean canopy measure with B Sure ® added,[2],7.4%
same,Yield (bushels/acre),"[3]; B Sure 1,170 mls/ha",61.5 bushels/acre
same,soybean yield reduction over the untreated check,[3]; lactofen 210 g ai/ha,0.7 bushels/acre
"CS(=O)(=O)NC(=O)c1cc(Oc2ccc(C(F)(F)F)cc2Cl)ccc1[N+](=O)[O-] [Fomesafen, fomesafen]",Soybean Yield (% increase over untreated check),soybeans (Glycine max),4.6%
same,% Injury,"soybeans (Glycine max); soybean, applied at V5/R1, visual scale 0-100",7%
"O=[N+]([O-])c1c(Cl)c(Cl)c(Cl)c(Cl)c1Cl [PCNB, pentachloronitrobenzene]",% Injury 3 DAA,[4]; 3 days after application,20%
same,% Injury 7 DAA,[4]; 7 days after application,100%
same,% Injury 10 DAA,[4]; 10 days after application,100%
same,% Injury 14 DAA,[4]; 14 days after application,100%
same,% Injury 28 DAA,[4]; 28 days after application (end of trial),~100%
"COc1cc(OC)nc(NC(=O)NS(=O)(=O)c2ncccc2OCC(F)(F)F)n1 [Trifloxysulfuron, trifloxysulfuron]",% Injury,[5]; 3-4 leaf,15%
same,% Injury,[5]; 5+ leaf,5%
same,% Injury,[5]; Cotyledon-2 leaf,18%
"C[N+](C)(C)CCO.O=C([O-])COc1ccc(Cl)cc1Cl [2,4-D Choline, 2,4-D choline salt]",Canopy rating relative to % ground cover,[2],6.18
same,% Increase in soybean canopy measure with B Sure ® added,[2],12.9%
same,soybean yield increase over the check,"[3]; B Sure 1,170 mls/ha, lactofen 210 g ai/ha, 2,4-D 2,527 g ai/ha",3.1 bushels/acre
same,Yield (bushels/acre),"[3]; B Sure 1,170 mls/ha",65.3 bushels/acre
"COc1cc(Cl)nc(NC(=O)NS(=O)(=O)c2ccccc2C(=O)O)n1 [Chlorimuron, chlorimuron]",Canopy rating relative to % ground cover,[2],6.25
same,% Increase in soybean canopy measure with B Sure ® added,[2],10.9%
CC(C)(C)[C@@H](O)[C@@H](Cc1ccc(Cl)cc1)n1cncn1 (racemic) [Paclobutrazol],% Phytotoxicity,[1],10%
